Source: patent US11813264B2, “PAR1 modulation to alter myelination” (Mayo Foundation for Medical Education and Research, priority 2014, dated 2023)
“Also recorded” adds a separate entry of the source.

Tests used:
PAR1 [1] = biological target: T1, PAR1 (Mus musculus, UniProt P30558); test: Organotypic cerebellar slice culture with PAR1 inhibitor; assay type: cell-based; set-up: endogenous in cells; host or cells: primary mouse oligodendrocytes (OPCs shaken from P1 cortical mixed glial cultures); conditions: 70 nM, 7 days
T1 sequence (P30558 22-430): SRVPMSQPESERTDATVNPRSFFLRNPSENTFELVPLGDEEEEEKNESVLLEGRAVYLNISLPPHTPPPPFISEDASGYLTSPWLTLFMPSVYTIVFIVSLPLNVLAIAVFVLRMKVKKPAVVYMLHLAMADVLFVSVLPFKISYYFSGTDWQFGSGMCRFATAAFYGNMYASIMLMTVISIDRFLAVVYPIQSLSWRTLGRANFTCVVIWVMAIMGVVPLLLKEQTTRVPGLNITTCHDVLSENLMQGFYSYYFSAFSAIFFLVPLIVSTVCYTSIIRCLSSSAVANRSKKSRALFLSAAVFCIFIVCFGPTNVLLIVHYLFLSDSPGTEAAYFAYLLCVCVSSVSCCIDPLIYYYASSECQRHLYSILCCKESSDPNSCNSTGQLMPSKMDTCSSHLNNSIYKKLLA
Method: Pharmacologic inhibition of PAR1 in an organotypic cerebellar slice culture system: Cerebellar slices (350 μm) from postnatal day 8 mouse brain were grown in cell culture for 7 days in the presence or absence of 70 nM SCH79797, a small molecule inhibitor of PAR1. Cerebellar slices were then fixed with 2% paraformaldehyde and stained using immunofluorescence techniques for myelin associated makers, including MBP, a marker of mature oligodendrocytes (CC-1), and for a marker of oligodendrocyte progenitor cells (NG2). The photomicrographs in FIG. 16 show staining for each individual antigen, or for all of the antigens collectively in a single slice, as indicated.

[2] = test system: oligodendrocyte progenitor cells (OPCs); test: OPC process outgrowth; assay type: cell-based, mouse
Method: Oligodendrocyte Cultures: Purified cortical oligodendrocyte progenitor cells (OPCs) and differentiated oligodendrocytes were isolated from mixed glial cultures derived from postnatal day 1 mice (McCarthy and de Vellis, J Cell Blot 85:890-902, 1980). Glial cultures were grown in media containing DMEM, 2 mM Glutamax, 1 mM sodium pyruvate, 20 mM HEPES, and 10% heat-inactivated fetal calf serum (Atlanta Biologicals, Lawrenceville, GA). OPCs were isolated from 10 days-in-vitro (DIV) mixed glial cultures by overnight shaking and purified by differential adhesion. OPCs were seeded in defined Neurobasal A media containing 1% N2, 50 U/mL penicillin/streptomycin, 2 mM Glutamax, 1 mM sodium pyruvate, 0.45% glucose, and 50 μM β-mercaptoethanol (Sigma Aldrich, USA). OPCs were seeded at 3×10^4/cm^2 onto tissue culture plastic or 12 mm glass cover slips coated with poly-L-lysine (PLL, 10 μg/mL). After 24 h, cultures were 92-98% immunoreactive (IR) for sulfatide (O4) and by 72 hours at least 80% were also MBP-IR.
PAR agonist-induced changes in oligodendrocyte morphology: To determine the effects of recombinant Klk6, Klk1, thrombin, or PAR1-AP on oligodendroglia, 3 DIV PAR1^+/+, PAR1^−/−, and PAR2^−/− oligodendrocytes, PAR1^+/+ OPCs immediately post purification, or Oli-neu cells were grown on cover slips in the presence of agonists for 24 h. For ATP toxicity assays, oligodendrocytes were incubated with ATP (50 μM, Sigma Aldrich) in the presence of Klk6 or Klk1. Following each treatment, oligodendrocyte and OPC cultures were immunolabeled for O4 to visualize the cell body and processes. Oli-neu processes were visualized by staining the actin cytoskeleton with Cy3-conjugated Phalloidin.
To assess the effects of Klk6 and other PAR1 agonists on oligodendrocyte morphology and process stability, 20× digital micrographs were overlaid with a 780 μm^2 grid and ImageJ software 1.45r (National Institutes of Health) used to record cell number and the number of processes crossing horizontal grid lines (Scarisbrick et al., Brain 125:1283-1296, 2002). Data are expressed as the mean number of O4^+ or Phalloidin^+ processes per DAPI^+ cell (±SEM).
Changes in OPC or oligodendrocyte morphology were quantified from five microscopic fields per cover slip with the mean and SEM calculated across three cover slips per experiment. Each experiment was repeated at least twice using independent cultures. Analysis of oligodendrocyte morphology was performed without knowledge of treatment groups.

PAR1 [3] = biological target: T1, PAR1; test: Oligodendrocyte gene expression after PAR1 inhibitor treatment, real time RT-PCR; assay type: cell-based; set-up: endogenous in cells; host or cells: primary mouse oligodendrocytes (OPCs shaken from P1 cortical mixed glial cultures); conditions: 70 nM for 48 hours
PAR1 [4] = biological target: T1, PAR1; test: Neural precursor cell proliferation (BrdU incorporation); assay type: cell-based; set-up: endogenous in cells; conditions: 70, 35, 10 or 1 nM; NPCs from adult SVZ
Method: Effects of pharmacologic inhibition of PAR1 on NPC proliferation in vitro: NPCs were isolated from the SVZ of 8 week-old adult C57BL6/J mice, cultured in suspension, and treated with 70, 35, 10, or 1 nM of SCH79797, a small molecule inhibitor of PAR1.

Erk1/2 phosphorylation = test: Klk6-PAR signaling assay, Erk1/2 phosphorylation by Western blot in Oli-neu; assay type: cell-based, mouse
Method: Klk6-PAR signaling assays: To examine the ability of Klk6 to mediate PAR-dependent signaling in oligodendrocytes, Oli-neu oligodendroglia (3.5×10^5 cells/well in six-well plates) were treated with Klk6 (150 nM) for 10 min, followed by protein harvest. Cell lysates were analyzed for phosphorylated or nonphosphorylated Erk1/2 by Western blot. In experiments to determine the role of PARs in Klk6 signaling, Oli-neu were preincubated with the PAR1 antagonist, SCH79797 dihydrochloride (50 nM, Tocris Biosciences, Minneapolis, MN) for 30 minutes prior to Klk6 application.
Western blot: Oli-neu lysates were obtained using a buffer containing 1% NP40, 0.5% deoxycholate, 10% glycerol, and 20 mM Tris base and separated on SDS-polyacrylamide gels prior to transfer. Membranes were blocked with 5% milk in TBS-T and incubated overnight with primary antibodies including rabbit anti-phospho-Erk1/2 (1:1,000, Cell Signaling Technology, Danvers, MA), followed with a species-appropriate horseradish peroxidase-conjugated secondary antibody (1:20,000 GE Healthcare Unlimited, UK). Signal was detected using Chemiluminescence Supersignal Pico (Pierce, Rockford, IL). Western blots were repeated three times from independent cultures, scanned, and quantified by densitometry (BioRad Quantity One 1-D Analysis Software, BioRad, Hercules, CA). Erk1/2 signal was normalized to its nonphosphorylated form. Equal loading was verified by reprobing blots for […] (Novus Biologicals, Littleton, CO).

CC(C)c1ccc(Cn2ccc3c4c(N)nc(NC5CC5)nc4ccc32)cc1 [SCH79797]
number of mature oligodendrocytes (CC-1) (PAR1 [1]): significant increases
number of progenitor cells positive for NG2 (PAR1 [1]): significant increases
abundance of MBP (PAR1 [1]; P8 cerebellar slices): significant increases
Klk6-mediated inhibition of process outgrowth in presence of inhibitor ([2]; SCH79797 50 nM): diminished
attenuation of the ability of Klk6 to reduce OPC process outgrowth ([2]; SCH79797 50 nM for 3 hours prior to Klk6): ~34%
OPC process outgrowth relative to vehicle controls ([2]; SCH79797 alone): no significant effect
NogoA RNA (PAR1 [3]): decrease
Olig2 RNA (PAR1 [3]): decrease
expression of MBP RNA (PAR1 [3]): significant increase
expression of PLP RNA (PAR1 [3]; oligodendrocytes 24 hours in culture): significant increase
BrdU incorporation (PAR1 [4]): greater levels
ability of Klk6 to induce MAPK (Erk1/2) signaling in presence of inhibitor (Erk1/2 phosphorylation; SCH79797 50 nM, preincubated 30 minutes): blocked; also recorded: abolished
Erk1/2 phosphorylation (Erk1/2 phosphorylation; treatment alone, Klk6 10 minutes): No significant changes
